Measured values from ChEMBL document CHEMBL5331060, “Bisindole natural products: A vital source for the development of new anticancer drugs” (Eur J Med Chem, 2022).
Values belong to the molecule of their own block, whether it stands above or below them.

What was measured:
HL-60 [1] = test: Antiproliferative activity against human HL-60 cells assessed as inhibition of cell growth incubated for 48 hrs by WST-1 assay; format: functional, cell-based; conditions: HL-60, 48 h
K562 = test: Antiproliferative activity against human K562 cells assessed as inhibition of cell growth incubated for 48 hrs by WST-1 assay; format: functional, cell-based; conditions: K562, 48 h
A549 [2] = test: Antiproliferative activity against human A549 cells assessed as inhibition of cell growth incubated for 48 hrs by MTS assay; format: functional, cell-based; conditions: A549, 48 h
MCF7 [3] = test: Antiproliferative activity against human MCF7 cells assessed as inhibition of cell growth incubated for 48 hrs by MTS assay; format: functional, cell-based; conditions: MCF7, 48 h
HL-60 [4] = test: Antiproliferative activity against human HL-60 cells assessed as inhibition of cell growth incubated for 48 hrs by MTS assay; format: functional, cell-based; conditions: HL-60, 48 h
SMMC-7721 = test: Antiproliferative activity against human SMMC-7721 cells assessed as inhibition of cell growth incubated for 48 hrs by MTS assay; format: functional, cell-based; conditions: SMMC-7721, 48 h
SW480 [5] = test: Antiproliferative activity against human SW480 cells assessed as inhibition of cell growth incubated for 48 hrs by MTS assay; format: functional, cell-based; conditions: SW480, 48 h
HeLa [6] = test: Antiproliferative activity against human HeLa cells assessed as inhibition of cell growth incubated for 6 hrs; format: functional, cell-based
HeLa [7] = test: Antiproliferative activity against human HeLa cells assessed as inhibition of cell growth incubated for 24 hrs; format: functional, cell-based
MCF7 [8] = test: Antiproliferative activity against human MCF7 cells assessed as inhibition of cell growth incubated for 24 hrs by MTT assay; format: functional, cell-based; conditions: MCF7, 24 h
[9] = Antiproliferative activity against vincristine-resistant human KB cells assessed as inhibition of cell growth; format: functional, cell-based
KB [10] = test: Antiproliferative activity against drug-sensitive human KB cells assessed as inhibition of cell growth; format: functional, cell-based
MCF7 [11] = test: Antiproliferative activity against human MCF7 cells assessed as inhibition of cell growth by MTT assay; format: functional, cell-based
LoVo = test: Antiproliferative activity against human LoVo cells assessed as inhibition of cell growth by MTT assay; format: functional, cell-based
HepG2 = test: Antiproliferative activity against human HepG2 cells assessed as inhibition of cell growth by MTT assay; format: functional, cell-based
SW480 [12] = test: Antiproliferative activity against human SW480 cells assessed as inhibition of cell growth incubated for 48 hrs by MTT assay; format: functional, cell-based; conditions: SW480, 48 h
MCF7 [13] = test: Antiproliferative activity against human MCF7 cells assessed as inhibition of cell growth incubated for 48 hrs by MTT assay; format: functional, cell-based; conditions: MCF7, 48 h
HT-29 = test: Antiproliferative activity against human HT-29 cells assessed as inhibition of cell growth incubated for 48 hrs by MTS assay; format: functional, cell-based; conditions: HT-29, 48 h
HeLa [14] = test: Antiproliferative activity against human HeLa cells assessed as inhibition of cell growth incubated for 48 hrs by MTT assay; format: functional, cell-based
HCT-116 = test: Cytotoxicity against human HCT-116 cells assessed as reduction in cell viability at 20 uM measured after 48 hrs by MTS assay relative to control; format: functional
A549 [15] = test: Antiproliferative activity against human A549 cells assessed as inhibition of cell growth incubated for 72 hrs by SRB assay; format: functional, cell-based; conditions: A549, 72 h
MCF7 [16] = test: Antiproliferative activity against human MCF7 cells assessed as inhibition of cell growth incubated for 72 hrs by SRB assay; format: functional, cell-based; conditions: MCF7, 72 h
KB [17] = test: Antiproliferative activity against human KB cells assessed as inhibition of cell growth incubated for 72 hrs by neutral red based colorimetric assay; format: functional

SMILES: CC[C@]12C=CCN3CC[C@@]4(c5cc([C@@]6(C(=O)OC)C[C@@H]7CC(=O)N(CCc8c6[nH]c6ccccc86)C7)c(OC)cc5N(C)[C@H]4[C@@](O)(C(=O)OC)C1)[C@@H]32
- IC50 (HL-60 [1]): 9.1 µM
- IC50 (K562): 9.3 µM

SMILES: NC[C@@H](NC(=O)C(=O)c1c[nH]c2ccccc12)c1c[nH]c2cc(Br)ccc12
- IC50 (HeLa [6]): > 200 µM
- IC50 (HeLa [7]): > 200 µM

SMILES: O=C1C[C@@H]2c3cc(O)c(O)cc3[C@@]3(Nc4ccccc4C3=O)[C@@]23C(=O)c2ccccc2N13
- IC50 (MCF7 [8]): 32.2 µM

SMILES: C/C=C1/CN2[C@H]3Cc4c([nH]c5ccc(O)c([C@H]6Cn7c8c(c9ccccc97)CCN7CC=C[C@@]6(CC)[C@H]87)c45)[C@@H]2C[C@@H]1[C@]3(CO)C(=O)OC
- IC50 [9]: 0.57 µM
- IC50 (KB [10]): 0.57 µM

SMILES: N[C@H](CNC(=O)C(=O)c1c[nH]c2ccccc12)c1c[nH]c2cc(Br)ccc12
- IC50 (HeLa [6]): 165 µM
- IC50 (HeLa [7]): 146 µM

SMILES: O=C1C[C@H]2c3ccc(O)c(O)c3[C@]3(Nc4ccccc4C3=O)[C@]23C(=O)c2ccccc2N13
- IC50 (MCF7 [8]): 78.5 µM

SMILES: CC[C@@H]1C[C@H]2C[C@](C(=O)OC)(c3cc4c(cc3OC)N(C)[C@H]3[C@@](O)(C(=O)OC)[C@H](OC(C)=O)[C@]5(CC)C=CCN6CC[C@]43[C@@H]65)c3[nH]c4ccccc4c3CC[N+]([O-])(C1)C2
- IC50 (MCF7 [11]): 51.3 µM
- IC50 (LoVo): 65.2 µM
- IC50 (HepG2): 38.2 µM

SMILES: CC[C@@H]1CN(C)[C@H]2Cc3c([nH]c4ccccc34)[C@H](c3cc4c5c([nH]c4cc3OC)[C@@]3(C(=O)OC)C[C@H]4C[C@@H](CC)[C@@H]3N(CC5)[C@H]4CC(C)=O)C[C@H]1[C@@H]2C(=O)OC
- Activity (HCT-116): 70%
- IC50 (A549 [15]): < 10 µM
- IC50 (MCF7 [16]): < 10 µM

SMILES: C/C=C1/CN2CC[C@@]34c5cc(OC)c(-c6cc7c8c(n(C)c7cc6OC)[C@@H]6[C@H]7O[C@@H](C)[C@H](CN6C(=O)C(C)C)[C@H]7[C@H]8C(=O)OC)c(C)c5N(C)[C@@]23CC[C@H]1[C@H]4C(=O)OC
- IC50 (KB [17]): 6 µM

Next, values leading:

- IC50 (A549 [2]): 13.1 µM
- IC50 (MCF7 [3]): 13.1 µM
- IC50 (HL-60 [4]): 13.1 µM
- IC50 (SMMC-7721): 13.1 µM
- IC50 (SW480 [5]): 13.1 µM
SMILES: CC[C@]12C=C([C@@H]3C=C[C@@]4(CC)CC(C(=O)OC)=C5Nc6ccccc6[C@@]56CCN3[C@@H]46)[C@@H](CC(C)=O)N3CC[C@]4(C(=C(C(=O)OC)C1)Nc1ccccc14)[C@@H]32

- IC50 (A549 [2]): 13.1 µM
- IC50 (MCF7 [3]): 13.1 µM
- IC50 (HL-60 [4]): 13.1 µM
- IC50 (SMMC-7721): 13.1 µM
- IC50 (SW480 [5]): 13.1 µM
SMILES: CC[C@]12C=C([C@H]3C=C[C@@]4(CC)CC(C(=O)OC)=C5Nc6ccccc6[C@@]56CCN3[C@@H]46)CN3CC[C@]4(C(=C(C(=O)OC)C1)Nc1ccccc14)[C@@H]32

- IC50 (A549 [2]): 13.1 µM
- IC50 (MCF7 [3]): 13.1 µM
- IC50 (HL-60 [4]): 13.1 µM
- IC50 (SMMC-7721): 13.1 µM
- IC50 (SW480 [5]): 13.1 µM
SMILES: CC[C@]12C=C[C@H](C3=C[C@@]4(CC)CC(C(=O)OC)=C5Nc6ccccc6[C@@]56CCN([C@@H]3CC(C)=O)[C@@H]46)N3CC[C@]4(C(=C(C(=O)OC)C1)Nc1ccccc14)[C@@H]32

- IC50 (SW480 [12]): 1.42 µM
- IC50 (A549 [2]): > 40 µM
- IC50 (MCF7 [13]): 1.42 µM
- IC50 (HT-29): > 40 µM
- IC50 (HeLa [14]): 1.42 µM
- IC50 (SMMC-7721): > 40 µM
SMILES: CC[C@@]12C=C(C(=O)OC)C3Nc4cc(OC)c(O)cc4[C@@]34CCN([C@@H]3c5cc6c(cc5O[C@@H]3[C@H]1O)NC1=C(C(=O)OC)C[C@]3(CC)[C@@H]5O[C@@H]5CN5CC[C@@]16[C@@H]53)[C@@H]24 (stereo partly specified)

- IC50 (SW480 [12]): 1.42 µM
- IC50 (MCF7 [13]): 1.42 µM
- IC50 (HeLa [14]): 1.42 µM
SMILES: CC[C@@]12CC(C(=O)OC)=C3Nc4cc5c(cc4[C@@]34CCN(C[C@H]3O[C@H]31)[C@@H]24)[C@@H]1[C@H](O5)[C@@H](O)[C@@]2(CC)CC(C(=O)OC)=C3Nc4c(cc(O)c(OC)c4OC)[C@@]34CC[N+]1([O-])[C@@H]24 (stereo partly specified)
